Test results as given in US20130296390A1, “METHOD AND COMPOSITIONS FOR ENHANCING THE SAFETY OF ORALLY ADMINISTERED MAGNESIUM ALPHA-LIPOATE” (BIOLINK LIFE SCIENCES, INC., priority 2012, published 2013).
“Also recorded” adds a separate entry of the source. Values belong to the compound of their own block, whether it stands above or below them.

Legend:
[1] = Physicochemical description
[2] = system: mouse model of chronic kidney disease (CKD); test: Example 1: phosphate binders in diet of LDLR−/− mouse model of CKD; type: in vivo; details: chronic daily dose of 0.5% or 1.5% (by weight) in the diet, oral
From the text: This study critically examined the in vivo efficacy of phosphate binding by a combination of phosphate binders, magnesium R-(+)-α-lipoate and calcium succinate monohydrate, in a mouse model of chronic kidney disease (CKD). The model is partial renal ablation in the LDL receptor-deficient (LDLR−/−) mouse that is fed high fat/cholesterol diets. […] In these animals, CKD causes intensification of vascular calcification (VC).
Materials: Calcium succinate monohydrate (CaSucc) and magnesium R-(+)-α-lipoate (MgRALA) having high purity and freedom from contaminating trace metals were provided by BioLink Life Sciences, Inc. Other chemicals were purchased from Sigma Aldrich Company (St. Louis, Mo.). […]
Two sets of animals in the group receiving magnesium alpha-lipoate were treated according to the protocol. […] Myocardin, Smad6, sm22α, calponin, αSMA, BMP-2, RUNX2/Cbfa1, osteopontin and osteocalcin message levels were measured by real time RT-PCR. Osteocalcin, type 1 collagen and αSMA were determined by immunohistochemistry. MGP levels and specifically γ-carboxylated MGP were determined with a specific antibody. […]
Blood Tests: Serum was analyzed on the day of blood draw for blood urea nitrogen [BUN], cholesterol, calcium, glucose and phosphate by standard autoanalyzer laboratory methods.

[3] = target: T1, sodium-dependent vitamin transporters (SMVT) (Homo sapiens, UniProt Q9Y289); details: keratinocytes, cited from earlier work; for Ki: read-out: Ki, inhibition of biotin uptake
T1 construct: in keratinocytes, the SMVT transport system; endogenous in cells; host or cells: human keratinocytes
T1 sequence (Q9Y289 1-635): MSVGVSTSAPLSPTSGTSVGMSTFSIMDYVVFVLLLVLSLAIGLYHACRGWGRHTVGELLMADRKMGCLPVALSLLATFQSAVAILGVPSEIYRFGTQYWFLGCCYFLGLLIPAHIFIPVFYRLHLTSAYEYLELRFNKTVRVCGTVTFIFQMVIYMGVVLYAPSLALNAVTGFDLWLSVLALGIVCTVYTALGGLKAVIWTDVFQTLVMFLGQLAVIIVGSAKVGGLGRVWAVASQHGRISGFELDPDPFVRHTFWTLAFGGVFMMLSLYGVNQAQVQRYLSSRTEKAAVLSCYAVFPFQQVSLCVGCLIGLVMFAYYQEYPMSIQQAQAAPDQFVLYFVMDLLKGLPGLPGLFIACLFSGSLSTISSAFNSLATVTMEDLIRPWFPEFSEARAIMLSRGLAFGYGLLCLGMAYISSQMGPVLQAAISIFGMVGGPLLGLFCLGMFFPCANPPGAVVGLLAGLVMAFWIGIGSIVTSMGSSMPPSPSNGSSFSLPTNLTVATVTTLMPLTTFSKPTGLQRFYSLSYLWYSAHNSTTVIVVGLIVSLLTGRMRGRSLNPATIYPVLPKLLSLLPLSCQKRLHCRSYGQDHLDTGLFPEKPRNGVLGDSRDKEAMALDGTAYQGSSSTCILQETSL

[4] = target: second biotin transport component; details: keratinocytes, cited from earlier work
[5] = intravenous, acute 100 mg/kg dose, rat; cited from earlier work
[6] = system: acetyl-CoA carboxylase (EC 6.4.1.2); details: intraperitoneal ALA 8.8 mg/kg·day or 31.8 mg/kg·d, rats; wide intragroup variability; cited from earlier work
[7] = cited from earlier work
[8] = oral; cited from earlier work
[9] = target: T2, pyruvate carboxylase (EC 6.4.1.1) (Rattus norvegicus, UniProt P52873); details: intraperitoneal ALA 8.8 mg/kg·day or 31.8 mg/kg·d, rats, compared with vehicle controls (P<0.05); cited from earlier work
T2 construct: Lipoic acid reduces the activities of biotin-dependent carboxylases in rat liver; from tissue; host or cells: rat liver
T2 sequence (P52873 21-1178): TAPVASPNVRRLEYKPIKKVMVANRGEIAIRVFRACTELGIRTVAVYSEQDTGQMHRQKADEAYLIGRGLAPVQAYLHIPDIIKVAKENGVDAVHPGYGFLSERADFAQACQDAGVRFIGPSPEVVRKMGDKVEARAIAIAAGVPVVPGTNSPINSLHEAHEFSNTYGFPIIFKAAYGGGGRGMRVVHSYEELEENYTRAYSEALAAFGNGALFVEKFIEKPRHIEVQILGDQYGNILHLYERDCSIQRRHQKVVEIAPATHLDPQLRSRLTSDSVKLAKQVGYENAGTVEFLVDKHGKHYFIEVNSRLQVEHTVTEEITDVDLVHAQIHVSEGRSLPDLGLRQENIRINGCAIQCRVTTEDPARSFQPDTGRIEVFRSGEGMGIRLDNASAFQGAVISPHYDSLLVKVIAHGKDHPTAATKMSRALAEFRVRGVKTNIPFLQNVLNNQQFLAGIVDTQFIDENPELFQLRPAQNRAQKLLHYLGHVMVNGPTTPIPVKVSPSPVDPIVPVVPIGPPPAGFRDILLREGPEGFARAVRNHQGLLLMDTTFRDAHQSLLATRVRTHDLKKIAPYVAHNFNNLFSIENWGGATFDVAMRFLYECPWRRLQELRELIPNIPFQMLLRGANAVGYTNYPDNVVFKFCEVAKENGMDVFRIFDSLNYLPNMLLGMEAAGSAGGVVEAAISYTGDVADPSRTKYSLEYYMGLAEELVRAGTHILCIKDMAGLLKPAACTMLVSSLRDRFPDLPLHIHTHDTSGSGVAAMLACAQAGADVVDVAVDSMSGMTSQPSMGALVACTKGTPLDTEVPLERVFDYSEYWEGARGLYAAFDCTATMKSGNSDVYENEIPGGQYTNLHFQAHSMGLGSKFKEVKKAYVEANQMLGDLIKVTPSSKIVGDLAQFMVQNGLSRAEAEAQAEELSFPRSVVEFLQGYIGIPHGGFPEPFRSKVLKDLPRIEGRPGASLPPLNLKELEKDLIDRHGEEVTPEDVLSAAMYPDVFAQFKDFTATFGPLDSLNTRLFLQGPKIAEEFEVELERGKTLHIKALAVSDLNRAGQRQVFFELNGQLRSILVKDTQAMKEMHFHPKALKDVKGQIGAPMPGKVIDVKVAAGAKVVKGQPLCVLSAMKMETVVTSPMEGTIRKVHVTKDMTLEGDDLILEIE

[10] = in vivo; cited from earlier work
[11] = oral, chronic daily doses about 30 mg/kg to over 2,000 mg/kg body weight; cited from earlier work
[12] = target: T3, β-methylcrotonyl-CoA carboxylase (EC 6.4.1.4) (Rattus norvegicus, UniProt Q5I0C3+Q5XIT9); details: intraperitoneal ALA 8.8 mg/kg·day or 31.8 mg/kg·d, rats, compared with vehicle controls (P<0.05); cited from earlier work
T3 construct: Lipoic acid reduces the activities of biotin-dependent carboxylases in rat liver; from tissue; host or cells: rat liver
T3 sequence (Q5I0C3 39-715): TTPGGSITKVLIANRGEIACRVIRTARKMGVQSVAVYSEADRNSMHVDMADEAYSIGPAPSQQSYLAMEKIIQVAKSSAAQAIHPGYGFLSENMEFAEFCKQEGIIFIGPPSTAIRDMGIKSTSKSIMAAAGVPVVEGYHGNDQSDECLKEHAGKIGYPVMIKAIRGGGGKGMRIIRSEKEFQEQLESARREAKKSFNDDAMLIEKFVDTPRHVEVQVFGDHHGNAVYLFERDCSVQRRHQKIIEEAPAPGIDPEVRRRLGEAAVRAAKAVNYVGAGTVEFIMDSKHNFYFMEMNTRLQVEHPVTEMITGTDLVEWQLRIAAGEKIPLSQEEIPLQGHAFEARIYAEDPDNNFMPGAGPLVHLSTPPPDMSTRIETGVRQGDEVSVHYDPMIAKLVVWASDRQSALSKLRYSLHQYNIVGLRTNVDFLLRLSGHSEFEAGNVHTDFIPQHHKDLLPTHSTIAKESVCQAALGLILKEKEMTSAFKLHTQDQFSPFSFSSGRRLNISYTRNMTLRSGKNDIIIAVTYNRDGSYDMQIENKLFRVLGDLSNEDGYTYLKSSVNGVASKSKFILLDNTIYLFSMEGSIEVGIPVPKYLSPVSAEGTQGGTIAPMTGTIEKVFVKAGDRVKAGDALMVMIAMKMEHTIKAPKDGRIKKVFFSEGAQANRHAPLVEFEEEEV
T3 sequence (Q5XIT9 23-563): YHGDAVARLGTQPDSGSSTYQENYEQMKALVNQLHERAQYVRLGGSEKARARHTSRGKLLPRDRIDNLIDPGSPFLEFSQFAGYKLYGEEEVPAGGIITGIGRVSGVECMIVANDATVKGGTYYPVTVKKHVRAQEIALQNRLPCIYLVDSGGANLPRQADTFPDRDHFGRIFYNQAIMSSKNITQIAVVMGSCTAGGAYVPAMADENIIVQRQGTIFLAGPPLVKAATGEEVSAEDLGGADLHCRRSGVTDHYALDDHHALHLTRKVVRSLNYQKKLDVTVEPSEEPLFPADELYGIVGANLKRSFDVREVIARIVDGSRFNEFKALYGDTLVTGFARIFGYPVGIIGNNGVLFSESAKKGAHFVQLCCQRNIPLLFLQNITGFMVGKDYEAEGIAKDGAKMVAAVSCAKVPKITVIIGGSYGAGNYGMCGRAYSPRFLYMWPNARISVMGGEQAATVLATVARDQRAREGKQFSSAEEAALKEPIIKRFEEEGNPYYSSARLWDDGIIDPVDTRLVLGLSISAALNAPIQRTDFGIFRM

[13] = Short and long-term toxicity studies of ALA (NOAEL); type: in vivo
Method: Alpha-Lipoic acid is the sole remaining component in the formulation tested in Example 1. The safety and absence of toxicity of ALA has been established in both short and long-term toxicity studies, including in vitro mutagenicity/genotoxicity studies. The no-observed adverse effect level (NOAEL) of ALA is considered to be 60 mg per kg body weight per day. […] Nonetheless, the inventor examined to a number of potential mechanisms of toxicity related to alpha-lipoate.

stability and hygroscopicity of the powder [1]: stable, non-hygroscopic
Compound: O=C(O)CCCC[C@@H]1CCSS1 [magnesium R-(+)-alpha-lipoate, Magnesium R-(+)-alpha-lipoate]
overt adverse effects (FIG. 1) [2]: hair loss and skin disorders

Compound: C[C@@H]1NC(=O)N[C@@H]1CCCCCC(=O)O [desthiobiotin]
Ki [3]: 15.2 µM

Compound: O=C(O)CCCC[C@@H]1SC[C@@H]2NC(=O)N[C@@H]21 [biotin, D-biotin]
Ki ([4]; read-out: Ki, second biotin transport component, saturable at very low biotin concentrations): 0.0026 ± 0.0001 µM
Michaelis-Menten constant for biotin ([3]; SMVT transport system): 22.7 ± 1.0 µM
maximal velocity ([3]; SMVT transport system): 163.6±3.5 pmol per five minutes per milligram of protein

Compound: O=C(O)CCCC[C@@H](S)CCS (racemic) [dihydrolipoic acid]
Ki [3]: 11.4 µM

Compound: O=C(O)CCCCC1CCSS1 (stereo not drawn) [ALA, alpha-lipoic acid]
S-adenosylhomocysteine [5]: elevated
S-adenosylmethionine [5]: depleted
decrease of acetyl carboxylase activity [6]: ≤ 43%
toxicities in human studies ([7]; normal subjects and those with chronic kidney disease): no significant toxicities have been observed
overt adverse effects in humans ([7]; oral, total doses 100 mg to 1800 mg daily for months or years): without overt adverse effects; also recorded: no overt adverse effects
fraction of orally administered ALA absorbed into cells and the systemic circulation [8]: greater than 90%
time in which most of the orally administered ALA is absorbed [8]: two
reduction of pyruvate carboxylase activity [9]: 28-36%
no-observed adverse effect level (NOAEL) [10]: 60 mg per kg body weight per day
inhibition of second biotin transport component [4]: not inhibited
overt adverse effects in animals [11]: without overt adverse effects
reduction of β-methylcrotonyl carboxylase activity [12]: 28-36%
Ki [3]: 4.6 µM
NOAEL equivalent for an adult man ([13]; adult man): 4.2 grams of ALA per day
NOAEL equivalent for an adult woman ([13]; adult woman): 3 grams of ALA per day

Compound: O=C(O)CCCCC1CCSS1 (stereo not drawn) [Magnesium a-lipoate, magnesium alpha-lipoate]
stability and hygroscopicity of the powder [1]: stable, non-hygroscopic

Compound: CC(C)(CO)[C@@H](O)C(=O)NCCC(=O)O [panthothenic acid]
inhibition of second biotin transport component [4]: not inhibited
Ki [3]: 1.2 µM
